Assay results: ChEMBL document CHEMBL5042524, “Discovery of Novel Histone Deacetylase 6 (HDAC6) Inhibitors with Enhanced Antitumor Immunity of Anti-PD-L1 Immunotherapy in Melanoma” (J Med Chem, 2022)
Values after ≈ are worked out from the molar mass of the structure shown. Active and inactive are the calls of the source. No cut-off for these calls is given here.

Legend:
[1] = target: T1, Histone deacetylase 8 (Homo sapiens, UniProt Q9BY41); assay: Inhibition of full length recombinant human C-terminal His tagged HDAC8 expressed in baculovirus infected Sf9 insect cells using Ac-Leu-GlyLys (Tfa)-AMC as substrate preincubated for 5 mins followed by substrate addition and measured after 30 mins by fluorescence microtiter plate reader assay
T1 sequence (Q9BY41 whole entry): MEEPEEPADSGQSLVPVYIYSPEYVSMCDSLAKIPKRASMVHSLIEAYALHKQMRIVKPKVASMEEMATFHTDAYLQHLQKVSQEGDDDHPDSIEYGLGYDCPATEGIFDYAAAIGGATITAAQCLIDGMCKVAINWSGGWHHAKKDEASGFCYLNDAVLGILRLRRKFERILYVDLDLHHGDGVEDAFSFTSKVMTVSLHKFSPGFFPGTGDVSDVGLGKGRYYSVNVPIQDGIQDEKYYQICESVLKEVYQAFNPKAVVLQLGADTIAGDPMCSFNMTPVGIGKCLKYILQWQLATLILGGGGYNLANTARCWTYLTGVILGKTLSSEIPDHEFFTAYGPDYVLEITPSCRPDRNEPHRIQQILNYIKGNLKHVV

[2] = system: Jurkat; assay: Effect on acetyl-SMC3 expression level in human Jurkat T cells at 0.1 to 0.4 uM incubated for 6 hrs by Western blot analysis; type: functional, cell-based; conditions: dose 0.1-0.4 µM
[3] = Clearance in Sprague-Dawley rat at 10 mg/kg, po measured upto 48 hrs by LC-MS/MS analysis; type: ADME, organism-based; conditions: in vivo
[4] = AUC (0 to infinity) in Sprague-Dawley rat at 10 mg/kg, po measured upto 48 hrs by LC-MS/MS analysis; type: ADME, organism-based; set-up: route oral, dose 10 mg/kg, time <=48; conditions: in vivo
[5] = Cmax in Sprague-Dawley rat at 10 mg/kg, po measured upto 48 hrs by LC-MS/MS analysis; type: ADME, organism-based; set-up: route oral, dose 10 mg/kg, time <=48; conditions: in vivo
[6] = Oral bioavailability in Sprague-Dawley rat at 10 mg/kg measured upto 48 hrs by LC-MS/MS analysis; type: ADME, organism-based; conditions: in vivo
[7] = system: Mus musculus; assay: Myelosuppression in C57BL/6 mouse assessed as change in granulocyte count at 50 mg/kg, IG administered once daily via gavage for 14 days; type: toxicity, organism-based; conditions: in vivo, po, 336 h, time 14 day
[8] = MRT (0 to infinity) in Sprague-Dawley rat at 2 mg/kg, iv measured upto 48 hrs by LC-MS/MS analysis; type: ADME, organism-based; conditions: in vivo
[9] = target: Histone deacetylase; assay: Inhibition of HDAC in human HeLa nuclear extracts using fluorometric substrate incubated for 30 mins by fluorescence plate reader analysis; type: cell-based
[10] = system: A549; assay: cells; type: functional, cell-based; conditions: Homo sapiens, A549, 48 h
Description: Antiproliferative activity against human A549 cells assessed as inhibition of cell proliferation measured after 48 hrs by MTT assay

[11] = system: B16-F10; assay: (§1) Antitumour activity against mouse B16-F10 cells allografted in C57BL/6 mouse model assessed as increase in CD3 positive/CD4 positive cells in tumor at 50 mg/kg, ip administered for 14 days by flow cytometry analysis (Rvb= 8.73%); type: functional; conditions: time 14 day
[12] = MRT (0 to infinity) in Sprague-Dawley rat at 10 mg/kg, po measured upto 48 hrs by LC-MS/MS analysis; type: ADME, organism-based; conditions: in vivo
[13] = Apparent volume of distribution in Sprague-Dawley rat at 10 mg/kg, po measured upto 48 hrs by LC-MS/MS analysis; type: ADME, organism-based; conditions: in vivo
[14] = Aqueous solubility of the compound incubated for 24 hrs by HPLC based shake-flask method; type: physicochemical; conditions: buffer
[15] = Toxicity in C57BL/6 mouse bearing B16-F10 tumor assessed as morphological changes in liver at 50 mg/kg, ip administered for 14 days by H and E staining based microscopic analysis; type: organism-based; conditions: in vivo, 336 h, time 14 day
[16] = system: B16-F10; assay: as §1, with “days in presence of 2-(5-chloro-2-(3-cyanobenzyloxy)-4-((2-methylbiphenyl-3-yl)methoxy)benzylamino)-2-methylpropanoic acid” for “days”; type: functional; conditions: time 14 day
[17] = system: B16-F10; assay: cells; type: functional, cell-based; conditions: Mus musculus, B16-F10, 48 h
Description: Antiproliferative activity against mouse B16-F10 cells assessed as inhibition of cell proliferation measured after 48 hrs by MTT assay

[18] = Half life in Sprague-Dawley rat at 10 mg/kg, po measured upto 48 hrs by LC-MS/MS analysis; type: ADME, organism-based; conditions: in vivo
[19] = Potency index, ratio of MS-275 IC50 to test compound IC50 for antiproliferative activity against human YCC3/7 cells assessed as cell growth inhibition; type: functional
[20] = Half life in Sprague-Dawley rat at 2 mg/kg, iv measured upto 48 hrs by LC-MS/MS analysis; type: ADME, organism-based; conditions: in vivo
[21] = Clearance in Sprague-Dawley rat at 2 mg/kg, iv measured upto 48 hrs by LC-MS/MS analysis; type: ADME, organism-based; conditions: in vivo
[22] = system: Jurkat; assay: Effect on acetyl-H3 expression level in human Jurkat T cells at 0.1 to 0.8 uM incubated for 6 hrs by Western blot analysis; type: functional, cell-based; conditions: dose 0.1-0.8 µM
[23] = MRT(0 to t) in Sprague-Dawley rat at 10 mg/kg, po measured upto 48 hrs by LC-MS/MS analysis; type: ADME, organism-based; conditions: in vivo
[24] = system: B16-F10; assay: Antitumor activity against mouse B16-F10 cells allografted in C57BL/6 mouse assessed as tumor growth inhibition at 50 mg/kg, ip administered daily for 14 days by caliper method (Rvb= 63%); type: functional; conditions: 336 h, time 14 day, read-out: TGI
[25] = Inhibition of pig brain tubulin polymerization by spectrophotometric analysis; set-up: species or system Sus scrofa
[26] = Toxicity in C57BL/6 mouse bearing B16-F10 tumor assessed as morphological changes in heart at 50 mg/kg, ip administered for 14 days by H and E staining based microscopic analysis; type: organism-based; conditions: in vivo, 336 h, time 14 day
[27] = MRT(0 to t) in Sprague-Dawley rat at 2 mg/kg, iv measured upto 48 hrs by LC-MS/MS analysis; type: ADME, organism-based; conditions: in vivo
[28] = AUC(0 to t) in Sprague-Dawley rat at 10 mg/kg, po measured upto 48 hrs by LC-MS/MS analysis; type: ADME, organism-based; set-up: route oral, dose 10 mg/kg, time <=48; conditions: in vivo
[29] = Toxicity in C57BL/6 mouse allografted with B16-F10 cells assessed as body weight loss at 50 mg/kg, ip administered daily for 14 days in combination with 2-(5-chloro-2-(3-cyanobenzyloxy)-4-((2-methylbiphenyl-3-yl)methoxy)benzylamino)-2-methylpropanoic acid; type: organism-based; conditions: in vivo, 336 h, time 14 day
[30] = system: Mus musculus; assay: Myelosuppression in C57BL/6 mouse assessed as change in lymphocyte count at 50 mg/kg, IG administered once daily via gavage for 14 days; type: toxicity, organism-based; conditions: in vivo, po, 336 h, time 14 day
[31] = AUC(0 to t) in Sprague-Dawley rat at 2 mg/kg, iv measured upto 48 hrs by LC-MS/MS analysis; type: ADME, organism-based; set-up: route intravenous, dose 2 mg/kg, time <=48; conditions: in vivo
[32] = Toxicity in C57BL/6 mouse bearing B16-F10 tumor assessed as morphological changes in kidney at 50 mg/kg, ip administered for 14 days by H and E staining based microscopic analysis; type: organism-based; conditions: in vivo, 336 h, time 14 day
[33] = system: B16-F10; assay: Antitumour activity against mouse B16-F10 cells allografted in C57BL/6 mouse model assessed as increase in CD3 positive/CD8 positive cells in tumor at 50 mg/kg, ip administered for 14 days in presence of 2-(5-chloro-2-(3-cyanobenzyloxy)-4-((2-methylbiphenyl-3-yl)methoxy)benzylamino)-2-methylpropanoic acid by flow cytometry analysis (Rvb= 6.65%); type: functional; conditions: time 14 day
[34] = Potency index, ratio of CAY10603 IC50 to test compound IC50 for antiproliferative activity against human YCC3/7 cells assessed as cell growth inhibition; type: functional

## COc1ccc(-c2ncc(C(=O)NCCCCCCC(=O)NO)s2)c(OC)c1
[1]
  IC50: 9.02 µM
[2]
  Activity: Active
[3]
  CL: 144.1 L/h/kg
[4]
  AUC: 0.1386 µg·h/mL
[5]
  Cmax: 0.035 µg/mL
[6]
  bioavailability: 8.7%
[7]
  Activity: Non-Toxic
[8]
  MRT inf: 1.6 h
[9]
  IC50: 0.04 µM
[10]
  IC50: 1.91 µM
[11]
  Activity: 8.72%
[12]
  MRT inf: 8.5 h
[13]
  Vz/F: 1485.8 L/kg
[14]
  solubility thermodynamic at 24 h: 0.0413 mg/mL (≈ 101 µM)
[15]
  Activity: Non-Toxic
[16]
  Activity: 26.3%
[17]
  IC50: 2.31 µM
[18]
  half-life: 5.8 h
[19]
  Ratio IC50: 6
[20]
  half-life: 6.2 h
[21]
  clearance: 6.3 L/h/kg
[22]
  Activity: Active
[23]
  MRT last at 48 h: 7.4 h
[24]
  inhibition in vivo at 50 mg/kg: 48%
[25]
  IC50: > 100 µM
[26]
  Activity: Non-Toxic
[27]
  MRT last at 48 h: 1.1 h
[28]
  AUC(0-t) at 48 h: 0.134 µg·h/mL
[29]
  Activity: Non-Toxic
[30]
  Activity: Non-Toxic
[31]
  AUC(0-t) at 48 h: 0.318 µg·h/mL
[32]
  Activity: Non-Toxic
[33]
  Activity: 16.5%
[34]
  Ratio IC50: 12

## COc1ccc(-c2ncc(C(=O)NCCCCCCC(=O)NO)[nH]2)c(OC)c1
[1]
  IC50: 14.6 µM
[2]
  Activity: Active
[9]
  IC50: 0.08 µM
[10]
  IC50: 2.22 µM
[17]
  IC50: 5.26 µM
[22]
  Activity: Active
